Measured values: US7666996B2, “Casein derived peptides and uses thereof” (priority 2000, dated 2010)

What was measured:
Assay type in all cases: in vivo
[1] = tested on: Non-Obese Diabetic (NOD) mice; assay: Glucosuria in Non-Obese Diabetic (NOD) mice; details: for Healthy/Total (sugar not detected in urine): female NOD mice, 100 μg synthetic peptide once weekly for 5 weeks, evaluated after 25 weeks; for Urine Sugar: individual healthy NOD mice, after 25 weeks; for prevention of glucosuria (in words): 100 μg once weekly for 5 weeks, 25 weeks
Description: Juvenile (Type I, IDDM) diabetes in Non-Obese Diabetic (NOD) mice:
Peptides derived from natural casein: NOD mice are a commonly used model for research of autoimmune disease and human Juvenile Diabetes. Six week old female NOD mice received either one or two injections per week of 100 μg of peptides derived from natural casein, for a total of 5 or 10 treatments. Control mice received no treatment. The severity of disease was determined according to glucosuria, which was measured using Combi test sticks [Gross, D. J. et al (1994), Diabetology, 37:1195]. Results were expressed as the percent of glucosuria-free mice in each sample over a 365-day period.
Synthetic peptides derived from casein: In another experiment, 6 week old female NOD mice received one injection per week of 100 μg of Synthetic peptides derived from casein for a total of 5 treatments. Control mice received no treatment. Results were expressed as the number of healthy mice in the various treated groups.

[2] = tested on: Non-Obese Diabetic (NOD) mice; assay: Intraperitoneal Glucose Tolerance Test (IPGTT) in NOD mice; details: individual healthy NOD mice, 25 weeks after peptides; for IPGT TEST 60 min. post load plasma glucose: 60 min after i.p. glucose 1 g/kg; for IPGT TEST 0 min. (pre-load) plasma glucose: before glucose load
Description: Intraperitoneal Glucose Tolerance Test (IPGTT): The glucose tolerance test is the definitive method for investigating glucose metabolism and diabetic tendencies in mammals. Twenty five (25) weeks after receiving Synthetic peptides derived from casein, response to a glucose load was assessed with an intraperitoneal glucose tolerance test. Glucose injection consisted of 1 g/kg body weight. Glycemic values were determined from blood drawn prior to test (0 minutes) and 60 minutes after loading.

[3] = tested on: female C57B⅙j mice fed an atherogenic diet; assay: Diet-induced hypercholesterol/hyperlipidemia in mice; details: one week post 1 mg i.p.
Description: The ability of synthetic casein derived peptides to reduce cholesterol levels in 7-week old female C57B⅙j mice was assessed after feeding an atherogenic diet. The mice were divided into groups of 8. One control group was fed a normal diet. A second control group was fed the modified Thomas Hartroft diet containing cholate (#TD 88051: Teklad, Madison, Wis.) [Gerber, D. W. et al., Journal of Lipid Research. 42, 2001]. The remaining experimental groups were all fed the modified Thomas Hartroft diet.
Cholestrol blood levels were determined according to Roche Cholesterol Assay based on Roeschlou & Allin enzymatic method (Roche, Inc., Germany).

[4] = tested on: irradiated, bone marrow transplanted mice; assay: Leukocyte and platelet reconstitution in bone marrow transplant recipient mice; details: for white blood cell reconstitution (in words): F1 mice, 750 cGy, 1 mg i.v., days 5 and 7 post-reconstitution
Description: Leukocyte and platelet reconstitution in bone marrow transplant recipient Mice: BALB/c mice were sub-lethally irradiated at a source to skin distance of 70 cm, dosage of 50 cGy per minute, for a total of 600 cGy. The irradiated mice were […] casein, synthetic peptides derived from casein (13-26 amino acids, see Table 3 above), or human serum albumin (controls), following a double-blinded protocol. Leukocyte reconstitution was determined according to cell count in peripheral blood collected at indicated intervals from 6 to 12 days post treatment. Platelet reconstitution was determined by cell count in blood collected from the retro orbital plexus, into EDTA-containing vials, at indicated intervals from day 6 to day 15 post treatment. […]
In a third series of experiments, the mice were irradiated (800 cGy), reconstituted and injected intraperitoneally with 1.0 mg synthetic peptides derived from casein (peptides 3a and 4P, representing the first 6 and 12 amino acids of the N terminus of αS1 casein, respectively—see Table 3 above) daily, on days 4, 5, 6 and 7 post-transplantation. Platelet reconstitution was assayed at 10 and 12 days post-transplantation.
In a fourth series of experiments, F1 mice were irradiated (750 cGy), reconstituted with syngeneic bone marrow, and injected intravenously 24 hours later with 1 mg per mouse of synthetic peptides derived from casein representing amino acids 1-22 of the N terminus of αS1 casein. In addition, 2 (two) groups of mice were treated each with a natural fraction of αS1 casein position 1-23, and a fraction of peptides derived from natural κ-casein, representing amino acid coordinates 106-169 of κ-casein (SEQ ID NO: 27). WBC counts were conducted on days 5, 7, 10 and 12 post-transplantation.

[5] = 800 cGy, 1.0 mg i.p. daily, days 4-7

Row | Substance | Healthy/Total (sugar not detected in urine) [1] | Urine Sugar [1] | IPGT TEST 60 min. post load plasma glucose [2] [mg/dL] | further results
1 | RPKHPIKH [Y, synthetic peptide, N-terminal 8 amino acids of αS1 casein] | 1/5 | Negative | 138 | IPGT TEST 0 min. (pre-load) plasma glucose [2]: 121 mg/dL
2 | RPKHPIKHQG [1a, synthetic peptide, N-terminal 10 amino acids of αS1 casein] | 1/5 | Negative | 106 | IPGT TEST 0 min. (pre-load) plasma glucose [2]: 88 mg/dL
3 | RPKHPIKHQGL [2a, synthetic peptide, N-terminal 11 amino acids of αS1 casein] | 4/5 | Negative | – | prevention of glucosuria (in words) [1]: highly effective; HDL ([3]; diet control 54.5): 41 mg/dL; LDL ([3]; diet control 326): 221 mg/dL; Total cholesterol (TC) ([3]; diet control 393): 279 mg/dL
4 | RPKHPIKHQGLP [3a, synthetic peptide, N-terminal 12 amino acids of αS1 casein] | 3/5 | Negative | – | prevention of glucosuria (in words) [1]: highly effective; increase in platelet counts over control, 10 days post transplantation [4, 5]: up to 35.5%; increase in platelet counts over control, 12 days post transplantation [4, 5]: up to 13.5%; platelet counts, 12 days post transplantation [4, 5]: 622000 mL⁻¹; platelet counts, 10 days post transplantation ([4]; 800 cGy, 1.0 mg i.p. daily, days 4-7, control 169): 229000 mL⁻¹
5 | RPKHPIKHQGLPQ [A, synthetic peptide, N-terminal 13 amino acids of αS1 casein] | 2/5 | Negative | – | –
6 | RPKHPIKHQGLPQE [B, synthetic peptide, N-terminal 14 amino acids of αS1 casein] | 2/5 | Negative | – | IPGT TEST 0 min. (pre-load) plasma glucose [2]: 130 mg/dL
7 | RPKHPIKHQGLPQEV [C, synthetic peptide, N-terminal 15 amino acids of αS1 casein] | – | – | – | peripheral white blood cell counts, day 10 ([4]; BALB/c, 600 cGy, 1 mg per mouse intraperitoneal, control 1.67): 1.72 ×10^6 cells per ml; peripheral white blood cell counts, day 12 ([4]; BALB/c, 600 cGy, 1 mg per mouse intraperitoneal, control 4.64): 6.54 ×10^6 cells per ml
8 | RPKHPIKHQGLPQEVL [D, synthetic peptide, N-terminal 16 amino acids of αS1 casein] | 2/5 | Negative | – | –
9 | RPKHPIKHQGLPQEVLNENLL [synthetic peptide, N-terminal 21 amino acids of αS1 casein] | 2/5 | Negative | 138 | –
10 | RPKHPIKHQGLPQEVLNENLLRF [synthetic peptide, N-terminal 23 amino acids of αS1 casein] | 2/5 | Negative | 143 | –
11 | α-S1 1-23: gel filtration fraction of natural casein peptides: amino acid positions 1-23 of the N-terminus of αS1 casein (SEQ ID NO: 22) (RPKHPIKHQGLPQEVLNENLLRF) | – | – | – | white blood cell reconstitution (in words) [4]: dramatic enhancement
12 | κ-casein (106-169): gel filtration fraction comprising a peptide representing amino acid positions 106-169 of κ-casein | – | – | – | white blood cell reconstitution (in words) [4]: dramatic enhancement
